Reference: patent US6548553B2, “Styryl sulfone anticancer agents” (Temple University-of the Commonwealth System of Higher …, priority 1997, dated 2003)

Assays:
Type in all cases: cell-based
[1] = tested on: 361 breast tumor cell line; assay: Trypan blue exclusion viability assay, breast tumor cell line; details: 2.5 and 5.0 μM, 48 hours
Method: The effect of FR-20 on the growth of normal and tumor cells of breast and prostate was examine utilizing nine cell lines: NIH/3T3 and HFL (normal fibroblast cell lines); MCF-7 and 361 ([…] breast tumor cell lines); BT-20, 435 and SKBR-3 ([…] breast tumor cell lines); LnCaP (androgen sensitive prostate tumor cell line); PC-3 and DU-145 (androgen insensitive prostate tumor cell line).
The cells were grown as in Example 22, A. FR-20 was dissolved in DMSO and added to the cells at 2.5 μM and 5.0 μM concentration. To control cells, DMSO was added equivalent to the volume of solvent (DMSO) present at the highest concentration of the compound. The activity of the compound was evaluated after 48 hours by Trypan blue exclusion. […] Nearly 50% of SKBR-3 and BT-20 cells were dead at 2.5 μM and 75% at 5.0 μM concentration of the compound. […] FRI-20 had profound effect on the viability of androgen-dependent LnCaP prostate tumor cell line when compared to androgen-independent DU-145 and PC-3 prostate cell lines. At […] FRI-20, 80% of LnCaP, 40% of PC-3 and 20% of DU-145 cells were killed. At […] FRI-20, 72% of LnCaP, 47% of PC-3 and 40% of DU-145 were killed (FIG. 3B).

NIH3T3 or HFL = assay: Cell cycle analysis, normal cell lines
ERK-2 = assay: Western blot analysis of treated cell lysates with ERK-2 antibody; details: 2.5 and 5.0 μM, 48 hours; NIH3T3, LnCaP or MCF-7
Method: Cell lysates of FRI-20-treated cells were prepared for Western Blot analysis as follows. NIH3T3, LnCaP or MCF-7 cells were seeded at a density of 2×10^5 cells/per well in a six-well plate and allowed to grow for 24 hours. Fresh medium was added to each well 2 hours before treatment with FRI-20. The compound was dissolved in DMSO to make a 2 mM stock solution and added to the medium (2 ml) to obtain a final concentration of 2.5 and 5.0 μM. After 48 hours at 37° C., the cells were washed twice with 10 ml of ice cold phosphate-buffered saline and harvested in 400 μl of lysis buffer containing 25 mM HEPES (pH 7.6), 0.1% Triton X-100, 300 mM NaCl, 1.5 mM MgCl2, 20 mM β-glycerophosphate, 100 μM Na3VO4, 0.2 mM EDTA, 0.5 mM dithiothreitol, 2 μg/ml aprotinin, 2 μg/ml leupeptin, 100 μM […] and 1 mM benzamidine. The cell lysates were kept on ice for 30 minutes and centrifuged for 10 minutes in a microcentrifuge (16000 X g). The cell lysates were separated from the debris and normalized for protein content.
Western Blot analysis was carried out on the drug- and mock-treated cell lysates with ERK-2 antibody. Equal amounts of total protein (100 μg) were loaded in each lane of a SDS-PAGE gel (10-12%) and transferred to Immobilon-P (Millipore, USA). […] The antibody was detected using the ECL Western blotting analysis kit (Amersham) following the manufacturer's instructions.

DU145 cells = assay: Comparison with cisplatin, Trypan blue viability after 72 hours; details: DU145, 72 hours, Trypan blue exclusion
Method: (§1) The killing effect of FR-20 on androgen-sensitive (LnCaP) and androgen insensitive (DU145) prostate tumor cells was compared to the effect of cisplatin (cis-diamminedichloroplatinum II), a widely used anti-prostate cancer agent. The cells were grown as in Example 26. FRI-20 or cisplatin was dissolved in DMSO and added to the cells at various concentrations. Viability was determined after 72 hours by the Trypan blue exclusion method. The concentration of FRI-20 required to completely kill LnCaP and DU145 cells was 2.5 μM and 5.0 μM, respectively. Under identical conditions, complete killing of LnCaP and DU145 cells by cisplatin required 25 μM and 15 μM concentrations, respectively.

LnCaP cells = assay: as above
Method: as §1

SK-MEL-28 = assay: GI50 growth inhibition, trypan blue cell count; details: Homo sapiens, melanoma, 96 hours after addition
Method: The human carcinoma cell lines listed in Table 5 below were purchased from ATCC and grown in an appropriate growth medium containing 10% fetal bovine serum (FBS) and antibiotics. The cells were plated at a cell density of 1.0×10^5 cells per […] in 6-well dishes. The cells were treated with various concentrations of (E)-fluorostyryl-4-bromobenzylsulfone 24 hours after plating in a total volume of 1 ml of medium using dimethylsulfoxide (DMSO) as a solvent for the compound. Control cells were treated with DMSO alone. The total number of viable cells was determined 96 hours after the addition of the compound by counting the cells in each well using a hemacytometer after trypan blue staining (viable cells exclude the stain). The counts were done in duplicate and the average was graphed in FIG. 8 as a percentage of the non-treated control group.

[2] = tested on: LnCaP, BT-20 and MCF-7 cells; assay: Trypan blue exclusion viability/proliferation assay (dose and time course); details: 2.5 mM (FIG. 1A) and 5.0 mM (FIG. 1B), 48 hours of treatment

## O=S(=O)(/C=C/c1ccc(F)cc1)Cc1ccc(Cl)cc1 [Example 11, E-4-fluorostyryl 4-chlorobenzyl Sulfone]
[1]
  viable cells: 50-75%
NIH3T3 or HFL
  effect on cell cycle progression: failed to produce a similar effect on cell cycle progression
ERK-2
  amount of ERK-2 protein in drug- and mock-treated lysates: the same amount of protein in both lysates
DU145 cells
  concentration required to completely kill cells: 5.0 µM
LnCaP cells; LnCaP, 72 hours, Trypan blue exclusion
  concentration required to completely kill cells: 2.5 µM
LnCaP cells; both LnCaP and DU145, 72 hours
  activity relative to cisplatin in killing prostate tumor cells: at least tenfold more active than cisplatin
SK-MEL-28
  GI50: 2000 nM
[2]
  inhibition of growth and induction of death of LnCaP, BT-20 and MCF-7 cells: substantially inhibit the growth and induce the death
